Data: patent US10865216B2, “Tricyclic Gyrase inhibitors” (MERCK SHARP & DOHME CORP., priority 2012, dated 2020)
Converted amounts (≈) assume the structure as drawn.

Assays:
S. aureus ATCC 13709 = assay: MIC, S. aureus ATCC 13709; assay type: cell-based; settings: S. aureus; Alamar Blue read after overnight incubation at 35° C.
E. coli ATCC 25922 = assay: MIC, E. coli ATCC 25922; assay type: cell-based; settings: E. coli; Alamar Blue read after overnight incubation at 35° C.

| Compound | MIC Sa (S. aureus ATCC 13709) [µg/mL] | MIC Ec (E. coli ATCC 25922) [µg/mL] |
| --- | --- | --- |
| CNc1cc(F)cc2c1[nH]c1nc(Oc3cnc(C4CC4)nc3)nc(N3CC4CCC(CN)C4C3)c12 (stereo not drawn) [Compound 4.253] | ≤0.5 | ≤0.5 |
| CCc1ncc(Oc2nc(N3CC4C(N)C4C3)c3c(n2)[nH]c2c(NC)cc(F)cc23)cn1 (stereo not drawn) [Compound 4.258] | ≤0.5 | ≤0.5 |
| CCc1ncc(Oc2nc(N3CC(N)C4(CC4)C3)c3c(n2)[nH]c2c(NC)cc(F)cc23)cn1 (stereo not drawn) [Compound 4.259] | ≤0.5 | ≤0.5 |
| CCc1ncc(Oc2nc(N3CC4CC4(CN)C3)c3c(n2)[nH]c2c(NC)cc(F)cc23)cn1 (stereo not drawn) [Compound 4.261] | ≤0.5 | 1 (≈ 2.23 µM) |
| CCc1ncc(Oc2nc(N3CCC(N)C3)c3c(n2)[nH]c2c(NC)cc(F)cc23)cn1 (stereo not drawn) [Compound 4.262] | ≤0.5 | ≤0.5 |
| CCc1ncc(Oc2nc(N3CCC4(CC4N)C3)c3c(n2)[nH]c2c(NC)cc(F)cc23)cn1 (stereo not drawn) [Compound 4.263] | ≤0.5 | ≤0.5 |
| CNc1cc(F)cc2c1[nH]c1nc(Oc3ccc4c(c3)C(=O)NC4)nc(N3CC(N)C4(CC4)C3)c12 (stereo not drawn) [Compound 4.265] | ≤0.5 | 4 (≈ 8.45 µM) |
| CNc1cc(F)cc2c1[nH]c1nc(Oc3ccc4c(c3)C(=O)NC4)nc(N3CC4CCNC4C3)c12 (stereo not drawn) [Compound 4.269] | ≤0.5 | 4 (≈ 8.45 µM) |
| CNc1cc(F)cc2c1[nH]c1nc(Oc3ccc4c(c3)C(=O)NC4)nc(N3CC4(CCC4N)C3)c12 (stereo not drawn) [Compound 4.270] | ≤0.5 | 2 (≈ 4.22 µM) |
| CNc1cc(F)cc2c1[nH]c1nc(Oc3cncc(Cl)c3)nc(N3CC4C(N)C4C3)c12 (stereo not drawn) [Compound 4.272] | ≤0.5 | ≤0.5 |
| CNc1cc(F)cc2c1[nH]c1nc(Oc3cncc(Cl)c3)nc(N3CC(N)C4(CC4)C3)c12 (stereo not drawn) [Compound 4.273] | ≤0.5 | 2 (≈ 4.41 µM) |
| CNc1cc(F)cc2c1[nH]c1nc(Oc3cncc(Cl)c3)nc(N3CC(N)C3)c12 [Compound 4.277] | ≤0.5 | ≤0.5 |
| CNc1cc(F)cc2c1[nH]c1nc(Oc3cnc(C4CCC4)nc3)nc(N3CC4C(N)C4C3)c12 (stereo not drawn) [Compound 4.286] | ≤0.5 | ≤0.5 |
| CNc1cc(F)cc2c1[nH]c1nc(Oc3cnc(C4CCC4)nc3)nc(N3CC(N)C4(CC4)C3)c12 (stereo not drawn) [Compound 4.287] | ≤0.5 | ≤0.5 |
| CNc1cc(F)cc2c1[nH]c1nc(Oc3ccc4c(N)nc(C)nc4c3)nc(N3CC4C(N)C4C3)c12 (stereo not drawn) [Compound 4.288] | 4 (≈ 8.24 µM) | >16 |
| CNc1cc(F)cc2c1[nH]c1nc(Oc3cnc4ccoc4c3)nc(N3CC4CC(N)C4C3)c12 (stereo not drawn) [Compound 4.290] | ≤0.5 | ≤0.5 |
| CNc1cc(F)cc2c1[nH]c1nc(Oc3cnc4ccoc4c3)nc(N3CC4C(N)C4C3)c12 (stereo not drawn) [Compound 4.291] | ≤0.5 | ≤0.5 |
| CNc1cc(F)cc2c1[nH]c1nc(Oc3cnc4ccoc4c3)nc(N3CC4CCC(N)C4C3)c12 (stereo not drawn) [Compound 4.293] | ≤0.5 | 1 (≈ 2.11 µM) |
| CNc1cc(F)cc2c1[nH]c1nc(Oc3cnc4c(c3)OCCO4)nc(N3CC4CC(N)C4C3)c12 (stereo not drawn) [Compound 4.294] | ≤0.5 | 1 (≈ 2.09 µM) |
| CNc1cc(F)cc2c1[nH]c1nc(Oc3cnc(N4CCC4)nc3)nc(N3CC4C(N)C4C3)c12 (stereo not drawn) [Compound 4.296] | ≤0.5 | ≤0.5 |
| CNc1cc(F)cc2c1[nH]c1nc(Oc3cnc(N4CC(O)C4)nc3)nc(N3CC4C(N)C4C3)c12 (stereo not drawn) [Compound 4.298] | ≤0.5 | 2 (≈ 4.19 µM) |
| CNc1cc(F)cc2c1[nH]c1nc(Oc3ccc4c(c3)C(=O)NCC4)nc(N3CC4C(N)C4C3)c12 (stereo not drawn) [Compound 4.301] | ≤0.5 | 1 (≈ 2.11 µM) |
| CNc1cc(F)cc2c1[nH]c1nc(Oc3cncc(C)c3)nc(N3CC4CC(N)C4C3)c12 (stereo not drawn) [Compound 4.303] | ≤0.5 | ≤0.5 |
| CNc1cc(F)cc2c1[nH]c1nc(Oc3ccc(C(C)=O)nc3)nc(N3CC4CCNC4C3)c12 (stereo not drawn) [Compound 4.309] | ≤0.5 | ≤0.5 |

| Compound | MIC Sa (S. aureus ATCC 13709) [µg/mL] | MIC Ec (E. coli ATCC 25922) [µg/mL] |
| --- | --- | --- |
| CNc1cc(F)cc2c1[nH]c1nc(Oc3cnc4[nH]cnc4c3)nc(N3CC4CC(N)C4C3)c12 (stereo not drawn) [Compound 4.310] | 8 (≈ 17.4 µM) | >16 |
| CNc1cc(F)cc2c1[nH]c1nc(Oc3cnc4[nH]cnc4c3)nc(N3CC4C(N)C4C3)c12 (stereo not drawn) [Compound 4.311] | 4 (≈ 8.98 µM) | >16 |
| CNc1cc(F)cc2c1[nH]c1nc(Oc3cnc4[nH]cnc4c3)nc(N3CC4CCNC4C3)c12 (stereo not drawn) [Compound 4.312] | 16 (≈ 34.8 µM) | >16 |
| CNc1cc(F)cc2c1[nH]c1nc(Oc3cnc(C(C)(C)C)nc3)nc(N3CC4C(N)C4C3)c12 (stereo not drawn) [Compound 4.314] | ≤0.5 | ≤0.5 |
| CNc1cc(F)cc2c1[nH]c1nc(Oc3cnc(C(C)(C)C)nc3)nc(N3CC4CC(N)C4C3)c12 (stereo not drawn) [Compound 4.316] | ≤0.5 | 1 (≈ 2.1 µM) |
| CNc1cc(F)cc2c1[nH]c1nc(Oc3ccc4ncsc4c3)nc(N3CC4CCC(N)C4C3)c12 (stereo not drawn) [Compound 4.320] | ≤0.5 | 1 (≈ 2.04 µM) |
| CNc1cc(F)cc2c1[nH]c1nc(Oc3ccc4sc(C)nc4c3)nc(N3CC4CC(N)CC4C3)c12 (stereo not drawn) [Compound 4.321] | ≤0.5 | 1 (≈ 1.99 µM) |
| CNc1cc(F)cc2c1[nH]c1nc(Oc3ccc4sc(C)nc4c3)nc(N3CC4CCC(N)C4C3)c12 (stereo not drawn) [Compound 4.322] | ≤0.5 | ≤0.5 |
| CNc1cc(F)cc2c1[nH]c1nc(Oc3cnc(C#N)c(C)c3)nc(N3CC4CC(N)C4C3)c12 (stereo not drawn) [Compound 4.323] | ≤0.5 | 1 (≈ 2.18 µM) |
| CNc1cc(F)cc2c1[nH]c1nc(Oc3cnc(C#N)c(C)c3)nc(N3CC(N)C4(CC4)C3)c12 (stereo not drawn) [Compound 4.324] | ≤0.5 | ≤0.5 |
| CNc1cc(F)cc2c1[nH]c1nc(Oc3cnc(C#N)c(C)c3)nc(N3CC4CC(N)C4C3)c12 (stereo not drawn) [Compound 4.325] | ≤0.5 | ≤0.5 |
| CNc1cc(F)cc2c1[nH]c1nc(Oc3cnc(C#N)c(C)c3)nc(N3CC4(CCC4N)C3)c12 (stereo not drawn) [Compound 4.326] | ≤0.5 | ≤0.5 |
| CNc1cc(F)cc2c1[nH]c1nc(Oc3cnc4c(ccn4C)c3)nc(N3CC4CC(N)C4C3)c12 (stereo not drawn) [Compound 4.328] | ≤0.5 | 1 (≈ 2.12 µM) |
| CNc1cc(F)cc2c1[nH]c1nc(Oc3ccc(C#N)nc3)nc(N3CC(N)C4(CC4)C3)c12 (stereo not drawn) [Compound 4.329] | ≤0.5 | ≤0.5 |
| CNc1cc(F)cc2c1[nH]c1nc(Oc3ccc(C#N)nc3)nc(N3CC4CCNC4C3)c12 (stereo not drawn) [Compound 4.330] | ≤0.5 | ≤0.5 |
| CNc1cc(F)cc2c1[nH]c1nc(Oc3ccc(C#N)nc3)nc(N3CCC(N)C3)c12 (stereo not drawn) [Compound 4.331] | ≤0.5 | ≤0.5 |
| CNc1cc(F)cc2c1[nH]c1nc(Oc3ccc(C#N)nc3)nc(N3CC4CC(N)C4C3)c12 (stereo not drawn) [Compound 4.332] | ≤0.5 | ≤0.5 |
| CNc1cc(F)cc2c1[nH]c1nc(Oc3ccc(C#N)nc3)nc(N3CC4(CCC4N)C3)c12 (stereo not drawn) [Compound 4.333] | ≤0.5 | ≤0.5 |
| CNc1cc(F)cc2c1[nH]c1nc(Oc3ccc4sc(N)nc4c3)nc(N3CC4CCC(N)C4C3)c12 (stereo not drawn) [Compound 4.335] | ≤0.5 | 4 (≈ 7.93 µM) |
| CNc1cc(F)cc2c1[nH]c1nc(Oc3ccc4oc(C)nc4c3)nc(N3CC4CCC(N)C4C3)c12 (stereo not drawn) [Compound 4.336] | ≤0.5 | 1 (≈ 2.05 µM) |
| CNc1cc(F)cc2c1[nH]c1nc(Oc3cnc4ccc[n+]([O-])c4c3)nc(N3CC4(CCC4N)C3)c12 (stereo not drawn) [Compound 4.342] | ≤0.5 | 4 (≈ 8.22 µM) |
| CNc1cc(F)cc2c1[nH]c1nc(Oc3cnc(N4CCCC4=O)nc3)nc(N3CC4C(N)C4C3)c12 (stereo not drawn) [Compound 4.345] | ≤0.5 | 2 (≈ 4.09 µM) |
| CNc1cc(F)cc2c1[nH]c1nc(Oc3cncc([S+](C)[O-])c3)nc(N3CC4C(N)C4C3)c12 (stereo not drawn) [Compound 4.351] | ≤0.5 | 2 (≈ 4.28 µM) |
| CNc1cc(F)cc2c1[nH]c1nc(Oc3cnc(CC(=O)N4CC[C@H](N)C4)nc3)nc(N3C[C@H](N)C4(CC4)C3)c12 [Compound 4.372] | 4 (≈ 7.32 µM) | 16 (≈ 29.3 µM) |
